# Data: PubChem BioAssay AID1253 (Columbia University Molecular Screening Center, 2008)
# The source made the active and inactive calls.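 Rule for the calls: active = IC50 under 10 µM in the follow-up dose response; inactive = IC50 10 µM or more, or under 40% single-dose inhibition.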
# Target: Tyrosine-protein phosphatase non-receptor type 22 (Homo sapiens) (UniProt Q9Y2R2)
# Assay: LYP phosphatase inhibitors, confirmation, biochemical, DiFMUP fluorescence, retest and dose response (AID 1253)
# Conditions: recombinant LYP
# Sequence of Tyrosine-protein phosphatase non-receptor type 22 (Homo sapiens) (Q9Y2R2 whole entry, looked up): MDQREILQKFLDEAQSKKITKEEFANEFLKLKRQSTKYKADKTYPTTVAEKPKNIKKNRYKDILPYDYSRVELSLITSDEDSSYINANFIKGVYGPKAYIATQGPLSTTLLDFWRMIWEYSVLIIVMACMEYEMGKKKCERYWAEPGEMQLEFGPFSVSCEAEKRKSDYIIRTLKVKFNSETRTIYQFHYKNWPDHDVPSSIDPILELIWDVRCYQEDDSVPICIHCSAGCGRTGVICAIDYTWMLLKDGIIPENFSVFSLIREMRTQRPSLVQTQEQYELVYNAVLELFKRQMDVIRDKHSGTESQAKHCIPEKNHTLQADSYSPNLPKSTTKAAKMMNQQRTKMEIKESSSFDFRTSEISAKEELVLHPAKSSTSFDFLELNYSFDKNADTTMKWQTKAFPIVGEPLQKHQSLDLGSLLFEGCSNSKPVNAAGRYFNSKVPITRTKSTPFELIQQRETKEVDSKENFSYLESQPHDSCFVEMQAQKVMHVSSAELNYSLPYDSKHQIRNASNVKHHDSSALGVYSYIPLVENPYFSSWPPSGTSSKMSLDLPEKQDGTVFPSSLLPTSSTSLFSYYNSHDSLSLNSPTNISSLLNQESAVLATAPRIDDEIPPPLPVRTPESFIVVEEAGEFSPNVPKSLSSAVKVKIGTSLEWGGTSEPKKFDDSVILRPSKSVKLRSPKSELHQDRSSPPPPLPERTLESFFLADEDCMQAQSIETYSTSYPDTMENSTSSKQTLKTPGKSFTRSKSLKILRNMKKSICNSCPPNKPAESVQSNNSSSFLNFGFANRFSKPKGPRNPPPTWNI
row,SMILES,IC50
1,Cc1cc(-c2c(C)[nH]n(-c3ccc(Cl)cc3)c2=O)n[nH]1,> 10 µM (inactive)
2,COc1cccc(OC)c1-c1nn2c(-c3cc(-c4ccccc4)n[nH]3)nnc2s1,4.71 µM
3,CC(C(=O)O)N1C(=O)/C(=C/C=C/c2ccco2)SC1=S (centres undefined),3.7 µM
4,O=C(O)CCN1C(=O)/C(=C/c2ccc(-c3nc4ccccc4s3)o2)SC1=S,1.45 µM
5,Cc1ccc(NC(=O)CN2C(=O)S/C(=C\c3cccn3-c3cccc(C(=O)O)c3)C2=O)c(C)c1,1.27 µM
6,Cn1nc(-c2ccc(Cl)cc2)nc2c(=O)n(C)c(=O)nc1-2,> 10 µM (inactive)
7,O=[N+]([O-])c1cc(/C=N\Nc2nccs2)ccc1O,4.06 µM
8,CC(C)C(C(=O)O)N1C(=O)/C(=C/C=C/c2ccco2)SC1=S (centres undefined),2.94 µM

# Same assay, conditions: recombinant LYP, at 10 µM, stronger effect = higher value
row,SMILES,inhibition
1,Cc1cc([N+](=O)[O-])nn1CC(=O)NNC(=S)Nc1ccc([N+](=O)[O-])cc1,inactive
2,CC(C)CNc1nnnc2c1sc1nc(N3CCOCC3)c3c(c12)CC(C)(C)SC3,inactive
3,O=C(NC(C(=O)N/N=C/c1ccccc1)c1n[nH]c(=O)c2ccccc12)c1ccccc1 (centres undefined),inactive
4,O=C(CSc1nc2ccc(S(=O)(=O)N3CCOCC3)cc2[nH]1)N1CCOCC1,inactive
5,CCc1nnc(NS(=O)(=O)c2ccc(NC(=S)NC(=O)/C=C/c3ccc(C(C)C)cc3)cc2)s1,inactive
6,Cc1sc(NC(=O)c2sc3nc4c(C)cccc4cc3c2N)c(C#N)c1C,inactive
7,O=C(OCC1OC(n2cnc3c(N(C(=O)c4ccccc4)C(=O)c4ccccc4)ncnc32)C(O)C1F)c1ccccc1 (centres undefined),inactive
8,O=C(Nc1nnc(COc2ccc(Cl)cc2)s1)c1ccc([N+](=O)[O-])cc1,inactive
9,CNC(=S)NNC(=O)c1cccn(Cc2ccc(Cl)c(Cl)c2)c1=O,inactive
10,Cc1ccc(-n2nc3c4c(cccc4c2=O)-c2ccccc2-3)cc1,inactive
11,CC(=O)Nc1ccc(NC(=O)c2ccccc2CC[N+](=O)[O-])cc1,inactive
12,Cc1ccc(CNC(=O)c2ccccc2N)cc1,inactive
13,O=C(CSc1nc2ccccc2c2nc3ccccc3n12)NCc1ccco1,inactive
14,O=C(Nc1ccc2oc(-c3ccc(Cl)c(Cl)c3)nc2c1)c1ncn[nH]1,inactive
15,CCOc1ccc(N(CC(=O)Nc2ccccc2C(=O)NCc2ccco2)S(C)(=O)=O)cc1,inactive
16,Cc1ccc(NC(=O)CN2C(=O)S/C(=C\c3ccc(-c4cccc(C(=O)O)c4C)o3)C2=O)cc1,inactive
17,Cc1nc2c(c(=O)n1CCC1=CCCCC1)c1nc3ccccc3nc1n2/N=C/c1ccccc1,inactive
18,COC(=O)c1sccc1-n1cccc1C(=O)N1CCOCC1,inactive
19,Cc1cc2c(cc1C)N(C(=O)CSC1=NCCS1)C(C)(C)c1ssc(=S)c1-2,inactive
20,O=C(c1ccc(Cl)cc1)c1cnc(-c2ccc(Cl)cc2)s1,inactive
21,Cc1nnc(SCC(=O)N/N=C/c2cn(-c3ccccc3)nc2-c2ccccc2)n1-c1ccccc1,inactive

row,SMILES,inhibition
1,O=C(NNC(=O)c1cc2cc3ccccc3nc2s1)c1cccc(Cl)c1,inactive
2,O=C(N/N=C/c1ccncc1)c1cc([N+](=O)[O-])cc([N+](=O)[O-])c1O,inactive
3,COc1ccc(C2C(C#N)=C(N)N(c3sc4c(c3C#N)CCCC4)C3=C2C(=O)CC(C)(C)C3)cc1OC (centres undefined),inactive
4,CCNC(=S)NNC(=O)c1cccn(Cc2ccc(Cl)cc2Cl)c1=O,inactive
5,O=C(Nc1ccc(-c2nc3ccc(NC(=O)c4cccs4)cc3[nH]2)cc1)c1cccs1,inactive
6,COc1ccc(C(=O)c2sc3nc(-c4ccccc4)ccc3c2N)cc1OC,inactive
7,COc1ccc2cc(CN(Cc3ccco3)C(c3nnnn3C3CCCCC3)C(C)C)c(=O)[nH]c2c1 (centres undefined),inactive
8,Cc1ccc(Nc2cc(C)nn2-c2nc(C)cc(=O)[nH]2)cc1,inactive
9,CCCSc1nc(C)c(-c2csc(C(C#N)=C3CCCC3)n2)cc1C#N,inactive
10,CC(C)C(CCNC(=O)CC(Cc1ccccc1)c1ccco1)c1ccco1 (centres undefined),inactive
11,CCOC(=O)C1=C(C)OC(N)=C(C#N)C1c1c(C)nn(-c2ccc(C)cc2)c1Cl (centres undefined),inactive
12,Cc1ccc(CSC2=Nc3ccccc3C3=NC(CC(=O)NCc4ccco4)C(=O)N23)cc1 (centres undefined),inactive
13,COc1c(N2CCN(C(=S)NCc3ccccc3)C(C)C2)c(F)cc2c(=O)c(C(=O)O)cn(C3CC3)c12 (centres undefined),inactive
14,CCCCN(C(=O)CSc1nnc(Nc2ccc(C)c(C)c2)s1)c1c(N)n(Cc2ccccc2)c(=O)[nH]c1=O,inactive
15,CCN(CC)CCCNC(=O)c1c(O)c2ccccc2n(Cc2ccccc2)c1=O,inactive
16,CCOC(=O)c1ccc(NC(=O)CC2NCCNC2=O)cc1 (centres undefined),inactive
17,CC1CCN(S(=O)(=O)c2ccc(NN=C(C#N)C#N)cc2)CC1,inactive
18,CCc1ccc2nc(NC(=O)c3ccc4c(=O)[nH]c(CN5CCOCC5)nc4c3)sc2c1,inactive
19,Cc1ccc(CSc2nnc(-c3ccccc3N)c(=O)[nH]2)cc1,inactive
20,O=C(NNC(=O)c1ccc2ccccc2c1O)c1ccccc1Cl,inactive
